Source: patent US20170105926A1, “COMPOSITION COMPRISING EXTRACT OF ALPINE WORMWOOD” (AMOREPACIFIC CORPORATION, priority 2014, published 2017)

Legend:
Format in all cases: cell-based, human
[1] = tested on: NK1R (neurokinin 1 receptor) gene; assay: Gene expression assay by real-time PCR (NK1R); conditions: melanocytes (KaMC), 2 nM substance P, 5 days; control group = 1
Protocol: (§1) Melanocytes (KaMC) (KCTC 12015BP) deposited in the Korean Collection for Type Culture (KCTC) were cultured in M-254 medium (Gibco BRL, NY, USA) supplemented with Human Melanocyte Growth Supplement (HMGS; Gibco BRL, NY, USA) on a 6-well plate, while changing the medium every other day, in a 5% CO2 incubator at 37° C. until the cells occupied 95% of the plate area (95% confluence). […] The cells not treated with substance P or the alpine wormwood (Artemisia umbelliformis) extract of Example 1 were used as a control group. After removing the medium form the melanocytes cultured on the 6-well plate, the cells were washed 2 times with cold phosphate-buffered saline (PBS) and the remaining water was completely removed. […] 1 μL of the RNA was quantified using Synergy II (Biotek, USA). […] After adding 10 μL of Taqman Gene Expression Master Mix (Life Technologies, USA) and 1 μL of Assays-on-DemandTM (Life Technologies, USA) of NK1R (ACCESSION: NM_001058) and EDN1 (ACCESSION: NM_001168319) genes to 9 μL of the diluted cDNA, the expression of the genes was analyzed by relative quantification using 7500 Fast Real-Time PCR (Life Technologies, USA) with glyceraldehyde 3-phosphate dehydrogenase (GAPDH, ACCESSION: NM001256799) as a control gene. […]

EDN1 (endothelin 1) gene = assay: Gene expression assay by real-time PCR (EDN1); conditions: melanocytes (KaMC), 2 nM substance P, 5 days; control group = 1
Protocol: as §1

endothelin 1 (EDN1) = assay: Endothelin 1 ELISA assay of culture medium; conditions: melanocytes (KaMC) medium, 2 nM substance P; control group = 100%
Protocol: When the density of the melanocytes on the 6-well plate reached about 80% (˜80% confluence), they were incubated for a total of 5 days with 2 nM of stress-inducing substance P (Bachem Fechemikalien, Bubendorf, Switzerland) or the alpine wormwood (Artemisia umbelliformis) extract of Example 1 of different concentrations (0, 0.1, 1, 2 and 5 ppm). The cells not treated with substance P or the alpine wormwood (Artemisia umbelliformis) extract of Example 1 were used as a control group.
The culture medium of the cells treated with the extract in (2) of Test Example 1 were recovered and the amount of endothelin 1 (EDN1) comprised in the medium was measured at 450 nm using the human total endothelin ELISA kit (MyBioSource, USA).
Endothelin content (%)=(Absorbance/Total protein content)×100 [Equation 1]

SMILES: CSCC[C@H](NC(=O)[C@H](CC(C)C)NC(=O)CNC(=O)[C@H](Cc1ccccc1)NC(=O)[C@H](Cc1ccccc1)NC(=O)[C@H](CCC(N)=O)NC(=O)[C@H](CCC(N)=O)NC(=O)[C@@H]1CCCN1C(=O)[C@H](CCCCN)NC(=O)[C@@H]1CCCN1C(=O)[C@@H](N)CCCN=C(N)N)C(N)=O [substance P]
- expression of the NK1R gene (relative quantification vs GAPDH) [1]: 4.2
- expression of the EDN1 gene (relative quantification vs GAPDH) (EDN1 (endothelin 1) gene): 3.6
- content of endothelin 1 (absorbance/total protein content x 100) (endothelin 1 (EDN1)): 124%
